Test results as given in PubChem BioAssay AID256 (DTP/NCI, 2004).
“And” between values parts separate entries of the source, which are not always exact repeats. Identical values can stand only once. Inconclusive results and toxic doses are left out. Rule for the calls: active = survival T/C of 150% or more; inactive = T/C below 125% in these data.

System: CD2F1 mice, L1210 leukemia ip, survival T/C
Assay: NCI In Vivo Anticancer Drug Screen. Data for tumor model L1210 Leukemia (intraperitoneal) in CD2F1 (CDF1) mice
Conditions: endpoint: mean survival time, higher = longer survival
Procedure, shortened: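 Each value reflects a quotient of treated over vehicle control outcomes in mice with a transplanted tumor.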

[1] = dose: 100.0 mg/kg/injection, schedule: Q01DX001 (ip), vehicle: saline
[2] = dose: 200.0 mg/kg/injection, schedule: Q01DX001 (ip), vehicle: saline
[3] = dose: 400.0 mg/kg/injection, schedule: Q01DX001 (ip), vehicle: saline
[4] = dose: 25.0 mg/kg/injection, schedule: Q01DX009 (ip), vehicle: Klucel (hydroxypropylcellulose) (HPC)
[5] = dose: 50.0 mg/kg/injection, schedule: Q01DX009 (ip), vehicle: Klucel (hydroxypropylcellulose) (HPC)
[6] = dose: 100.0 mg/kg/injection, schedule: Q01DX009 (ip), vehicle: Klucel (hydroxypropylcellulose) (HPC)
[7] = dose: 50.0 mg/kg/injection, schedule: Q04DX003 (ip), vehicle: Klucel (hydroxypropylcellulose) (HPC)
[8] = dose: 100.0 mg/kg/injection, schedule: Q04DX003 (ip), vehicle: Klucel (hydroxypropylcellulose) (HPC)
[9] = dose: 200.0 mg/kg/injection, schedule: Q04DX003 (ip), vehicle: Klucel (hydroxypropylcellulose) (HPC)
[10] = dose: 25.0 mg/kg/injection, schedule: Q01DX009 (ip), vehicle: saline with Tween-80
[11] = dose: 50.0 mg/kg/injection, schedule: Q01DX009 (ip), vehicle: saline with Tween-80
[12] = dose: 100.0 mg/kg/injection, schedule: Q01DX009 (ip), vehicle: saline with Tween-80
[13] = dose: 200.0 mg/kg/injection, schedule: Q01DX009 (ip), vehicle: saline with Tween-80
[14] = dose: 400.0 mg/kg/injection, schedule: Q01DX009 (ip), vehicle: saline with Tween-80
[15] = dose: 100.0 mg/kg/injection, schedule: Q01DX001 (ip), vehicle: saline with Tween-80
[16] = dose: 200.0 mg/kg/injection, schedule: Q01DX001 (ip), vehicle: saline with Tween-80
[17] = dose: 400.0 mg/kg/injection, schedule: Q01DX001 (ip), vehicle: saline with Tween-80
[18] = dose: 100.0 mg/kg/injection, schedule: Q04DX003 (ip), vehicle: saline with Tween-80
[19] = dose: 200.0 mg/kg/injection, schedule: Q04DX003 (ip), vehicle: saline with Tween-80
[20] = dose: 400.0 mg/kg/injection, schedule: Q04DX003 (ip), vehicle: saline with Tween-80

Measured: T/C

O=C1C(n2ccc(=O)n(C(=O)c3ccccc3)c2=O)CCN1CCO (stereo unspecified)
inactive: [1] 102 % of control | [2] 100 % of control | [3] 102 % of control

O=Cc1cc([N+](=O)[O-])cc(CCl)c1O
inactive: [4] 95 % of control | [5] 95 % of control | [6] 101 % of control

CCOC(=O)CCN(C(=O)OCc1ccccc1)N(C)C(=O)OCc1ccccc1
inactive: dose: 25.0 mg/kg/injection, schedule: Q04DX003 (ip), vehicle: Klucel (hydroxypropylcellulose) (HPC) 91 % of control | [7] 94 % of control | [8] 89 % of control | [9] 89 % of control | dose: 400.0 mg/kg/injection, schedule: Q04DX003 (ip), vehicle: Klucel (hydroxypropylcellulose) (HPC) 100 % of control

CC(O)C(NC(=O)c1cnc(=O)[nH]c1N)C(=O)O (stereo unspecified)
inactive: [10] 105 % of control | [11] 102 % of control | [12] 102 % of control

Nc1nc(N)n(-c2ccccn2)n1
inactive: dose: 75.0 mg/kg/injection, schedule: Q01DX001 (ip), vehicle: other 101 % of control | dose: 150.0 mg/kg/injection, schedule: Q01DX001 (ip), vehicle: other 97 % of control

O=C(O)CCC(=O)Nc1ccccc1C(=O)O
inactive: [12] 102 % of control | [13] 93 % of control | [14] 96 % of control

Cc1cc(=O)oc2cc(OC(=O)C(CCCCN)NC(=O)OCc3ccccc3)ccc12 (stereo unspecified)
inactive: dose: 12.5 mg/kg/injection, schedule: Q01DX009 (ip), vehicle: other 107 % of control | dose: 25.0 mg/kg/injection, schedule: Q01DX009 (ip), vehicle: other 106 % of control | dose: 50.0 mg/kg/injection, schedule: Q01DX009 (ip), vehicle: other 107 % of control | dose: 100.0 mg/kg/injection, schedule: Q01DX009 (ip), vehicle: other 101 % of control

N#CC(/C=C/c1ccccc1)Nc1ccccc1 (stereo unspecified)
inactive: [12] 89 % of control | dose: 100.0 mg/kg/injection, schedule: Q04DX003 (ip), vehicle: saline sonified 100 % of control | [13] 90 % of control | dose: 200.0 mg/kg/injection, schedule: Q04DX003 (ip), vehicle: saline sonified 97 % of control | [14] 89 % of control | dose: 400.0 mg/kg/injection, schedule: Q04DX003 (ip), vehicle: saline sonified 96 % of control

O=CN(SSN(C=O)C1CCCCC1)C1CCCCC1
inactive: dose: 12.5 mg/kg/injection, schedule: Q01DX009 (ip), vehicle: saline with Tween-80 95 % of control and 103 % of control | [10] 100 % of control and 108 % of control | [11] 94 % of control and 105 % of control | [12] 94 % of control and 98 % of control | [13] 94 % of control and 103 % of control | [14] 93 % of control and 102 % of control

CCC1(C#CCN2C(=O)c3ccccc3C2=O)C=CC2(CC1)OCCO2 (stereo unspecified)
inactive: [15] 101 % of control | [16] 93 % of control | [17] 91 % of control

CC1(C)C/C(=C\c2ccccc2[N+](=O)[O-])C(=O)c2ccccc21
inactive: dose: 100.0 mg/kg/injection, schedule: Q04DX003 (ip), vehicle: acetone 92 % of control | dose: 200.0 mg/kg/injection, schedule: Q04DX003 (ip), vehicle: acetone 90 % of control | dose: 400.0 mg/kg/injection, schedule: Q04DX003 (ip), vehicle: acetone 93 % of control

O=C1CC2=C(CC(O)=CC=C2)C(=O)O1
inactive: dose: 100.0 mg/kg/injection, schedule: Q01DX009 (ip), vehicle: saline 101 % of control | dose: 200.0 mg/kg/injection, schedule: Q01DX009 (ip), vehicle: saline 93 % of control

O=C(N/N=C/c1ccc2c(c1)CCC2)c1cc2ccccc2cc1O
inactive: [15] 92 % of control | [18] 95 % of control | [16] 92 % of control | [19] 94 % of control | [17] 87 % of control | [20] 89 % of control

CSc1sc2cc([N+](=O)[O-])ccc2[n+]1C
inactive: dose: 75.0 mg/kg/injection, schedule: Q01DX001 (ip), vehicle: saline 103 % of control

COc1cc2cc[n+]3c(C)c4ccc(OC)c(OC)c4cc3c2cc1OC (tested in a mixture with another compound)
inactive: dose: 5.0 mg/kg/injection, schedule: Q01DX009 (ip), vehicle: saline 108 % of control | dose: 60.0 mg/kg/injection, schedule: Q01DX009 (ip), vehicle: saline 121 % of control

CC(C)(C)OC(=O)NOC(=O)C(C)(C)C
inactive: dose: 25.0 mg/kg/injection, schedule: Q04DX003 (ip), vehicle: saline with Tween-80 101 % of control | dose: 50.0 mg/kg/injection, schedule: Q04DX003 (ip), vehicle: saline with Tween-80 100 % of control | [18] 96 % of control | [19] 89 % of control | [20] 87 % of control

CCOC(=O)C(C#N)CC (stereo unspecified)
inactive: [1] 98 % of control | [2] 98 % of control | [3] 107 % of control

CC(CP(=O)(c1ccccc1)c1ccccc1)C(O)(C(=O)c1ccccc1)c1ccccc1 (stereo unspecified)
inactive: [12] 95 % of control | [18] 97 % of control | [13] 97 % of control | [19] 94 % of control | [20] 102 % of control

COc1ccc(C(=O)C(c2ccccc2)c2ccccc2)cc1
inactive: [18] 93 % of control | [19] 94 % of control | [20] 90 % of control

CCOC(=O)CNC(=O)Oc1ccc(C=O)cc1OC
inactive: [10] 100 % of control | [11] 101 % of control | [12] 90 % of control

O=[N+]([O-])c1ccc(N/N=C/c2ccc(CO)cc2)c([N+](=O)[O-])c1
inactive: dose: 200.0 mg/kg/injection, schedule: Q04DX003 (ip), vehicle: saline 91 % of control | dose: 400.0 mg/kg/injection, schedule: Q04DX003 (ip), vehicle: saline 92 % of control

[Br][Pt+2][Br].[NH-]CC(=O)O.[NH-]CC(=O)O
inactive: [4] 101 % of control | [5] 90 % of control | [7] 96 % of control | [6] 86 % of control | [8] 102 % of control | [9] 95 % of control

CN1C(C)(C)CC(CN2c3ccccc3Sc3ccccc32)C1(C)C (stereo unspecified)
inactive: [18] 97 % of control | [19] 104 % of control

COC1(OC)C2(Cl)CCC1(Cl)CC2
inactive: dose: 50.0 mg/kg/injection, schedule: Q01DX001 (ip), vehicle: saline 103 % of control | [1] 113 % of control | [2] 102 % of control

CC(Br)C(=O)c1ccc(OC(=O)c2ccccc2)cc1 (stereo unspecified)
inactive: [1] 100 % of control | [2] 100 % of control | [3] 100 % of control

CCC1(C)CCC2=C(CCC3C(C)(C(=O)OC)CCCC23C)C1 (stereo unspecified)
inactive: [15] 93 % of control | [16] 89 % of control | [17] 89 % of control

COc1ccc(CNCCO)cc1O
inactive: [1] 101 % of control | [2] 98 % of control | [3] 98 % of control

c1ccc(CNCc2ccccc2)cc1
inactive: [8] 97 % of control | [9] 100 % of control

COC1OC(COC(=O)c2ccccc2)C2OC(=O)OC12 (stereo unspecified)
inactive: [18] 93 % of control | [19] 90 % of control | [20] 102 % of control

Nc1cc(Br)cc(Br)c1
inactive: [18] 94 % of control | [19] 105 % of control | [20] 94 % of control
